The experiment concerns HCV type 1b replicon in Huh-7 luc/neo (Huh-Luc) cells. Briefly: HCV replicon assay (Huh-Luc, luciferase readout). In kind it is cell-based. To be noted: Hepatitis C virus, Huh-7, 72 h, three days incubation, luciferase activity, read-out: HCV-REP-HUH-LUC_EC50. The source says: The compounds of formula (I) were examined for inhibitory activity in the HCV replicon. This cellular assay is based on a bicistronic expression construct, as described by Lohmann et al. (1999) Science vol. 285 pp. 110-113 with modifications described by Krieger et al. (2001) Journal of Virology 75: 4614-4624, in a multi-target screening strategy.
In essence, the method was as follows:
The assay utilized the stably transfected cell line Huh-7 luc/neo (hereafter referred to as Huh-Luc). This cell line harbors an RNA encoding a bicistronic expression construct comprising the wild type NS3-NS5B regions of HCV type 1b translated from an Internal Ribosome Entry Site (IRES) from encephalomyocarditis virus (EMCV), preceded by a reporter portion (FfL-luciferase), and a selectable marker portion (neoR, neomycine phosphotransferase). The construct is flanked by 5′ and 3′ NTRs (non-translated regions) from HCV type 1b. Continued culture of the replicon cells in the presence of G418 (neoR) is dependent on the replication of the HCV RNA. The stably transfected replicon cells that express HCV RNA, which replicates autonomously and to high levels, encoding inter alia luciferase, were used for screening the antiviral compounds.
The replicon cells were plated in 384 well plates in the presence of the test and control compounds which were added in various concentrations. Following an incubation of three days, HCV replication was measured by assaying luciferase activity (using standard luciferase assay substrates and reagents and a Perkin Elmer ViewLux™ ultraHTS microplate imager). Replicon cells in the control cultures have high luciferase expression in the absence of any inhibitor. The inhibitory activity of the compound on luciferase activity was monitored on the Huh-Luc cells, enabling a dose-response curve for each test compound. EC50 values were then calculated, which represent the amount of compound required to decrease the level of detected luciferase activity by 50%, or more specifically, to reduce the ability of the genetically linked HCV replicon RNA to replicate.
(In antiviral work, replicon cells carry a viral genome segment that copies itself.)
In the case of `COC(=O)N[C@H](C(=O)N1CCC[C@H]1c1nc2cc(-c3ncc(-c4ccc5nc([C@@H]6CCCN6C(=O)[C@@H](NC(=O)OC)C(C)C)[nH]c5c4)cn3)ccc2[nH]1)C(C)C` [Compound 4], the EC50 is 0.03 nM.
Regarding `COC(=O)N[C@H](C(=O)N1CCC[C@H]1c1nc2cc(-c3ncc(-c4ccc5nc([C@@H]6CCCN6C(=O)[C@@H](NC(=O)OC)C6CC6)[nH]c5c4)cn3)ccc2[nH]1)C1CC1` [Compound 7], the EC50 is 0.059 nM.
The result for `COC(=O)N[C@@H](C(=O)N1CCC[C@H]1c1nc2cc(-c3ncc(-c4ccc5nc([C@@H]6CCCN6C(=O)[C@H](NC(=O)OC)c6ccccc6)[nH]c5c4)cn3)ccc2[nH]1)c1ccccc1` [Compound 5] reads less than 0.015 nM; that for `COC(=O)N[C@@H](C(=O)N1CCC[C@H]1c1nc2cc(-c3ccc(-c4ccc5nc([C@@H]6CCCN6C(=O)[C@H](NC(=O)OC)c6ccccc6)[nH]c5c4)nn3)ccc2[nH]1)c1ccccc1` [Compound 6], 0.045 nM.
The result for `COC(=O)N[C@H](C(=O)N1CCC[C@H]1c1nc2cc(-c3ncc(-c4ccc5nc([C@@H]6CCCN6C(=O)[C@@H](NC(=O)OC)[C@@H](C)OC)[nH]c5c4)cn3)ccc2[nH]1)[C@@H](C)OC` [Compound 3] reads 0.13 nM; that for `COC(=O)N[C@H](C(=O)N1CCC[C@H]1c1nc2ccc(-c3ccc(-c4ccc5nc([C@@H]6CCCN6C(=O)[C@@H](NC(=O)OC)[C@@H](C)OC)[nH]c5c4)nc3)cc2[nH]1)[C@@H](C)OC` [Compound 9], 0.31 nM.
To `COC(=O)N[C@H](C(=O)N1CCC[C@H]1c1nc2cc(-c3ccc(-c4ccc5nc([C@@H]6CCCN6C(=O)[C@@H](NC(=O)OC)C(C)C)[nH]c5c4)nn3)ccc2[nH]1)C(C)C` [Compound 1] belongs 0.13 nM.

These data come from US20120172368A1, “Bis-Benzimidazole Derivatives” (priority 2009, published 2012).
